Experimental data published in patent US20220184075A1, “PHARMACEUTICAL COMPOSITION CONTAINING HDAC6 INHIBITOR AS ACTIVE INGREDIENT FOR PREVENTION OR TREATMENT OF ITCHING” (BNH RESEARCH CO.,LTD., priority 2018, published 2022).

Assays:
HDAC6 = target: T1, HDAC6 (Homo sapiens, UniProt Q9UBN7); conditions: cited from earlier work; for Selectivity: HDAC6 inhibitor selectivity, in words; for IC50: HDAC6 inhibitor
T1 sequence (Q9UBN7 1-1215): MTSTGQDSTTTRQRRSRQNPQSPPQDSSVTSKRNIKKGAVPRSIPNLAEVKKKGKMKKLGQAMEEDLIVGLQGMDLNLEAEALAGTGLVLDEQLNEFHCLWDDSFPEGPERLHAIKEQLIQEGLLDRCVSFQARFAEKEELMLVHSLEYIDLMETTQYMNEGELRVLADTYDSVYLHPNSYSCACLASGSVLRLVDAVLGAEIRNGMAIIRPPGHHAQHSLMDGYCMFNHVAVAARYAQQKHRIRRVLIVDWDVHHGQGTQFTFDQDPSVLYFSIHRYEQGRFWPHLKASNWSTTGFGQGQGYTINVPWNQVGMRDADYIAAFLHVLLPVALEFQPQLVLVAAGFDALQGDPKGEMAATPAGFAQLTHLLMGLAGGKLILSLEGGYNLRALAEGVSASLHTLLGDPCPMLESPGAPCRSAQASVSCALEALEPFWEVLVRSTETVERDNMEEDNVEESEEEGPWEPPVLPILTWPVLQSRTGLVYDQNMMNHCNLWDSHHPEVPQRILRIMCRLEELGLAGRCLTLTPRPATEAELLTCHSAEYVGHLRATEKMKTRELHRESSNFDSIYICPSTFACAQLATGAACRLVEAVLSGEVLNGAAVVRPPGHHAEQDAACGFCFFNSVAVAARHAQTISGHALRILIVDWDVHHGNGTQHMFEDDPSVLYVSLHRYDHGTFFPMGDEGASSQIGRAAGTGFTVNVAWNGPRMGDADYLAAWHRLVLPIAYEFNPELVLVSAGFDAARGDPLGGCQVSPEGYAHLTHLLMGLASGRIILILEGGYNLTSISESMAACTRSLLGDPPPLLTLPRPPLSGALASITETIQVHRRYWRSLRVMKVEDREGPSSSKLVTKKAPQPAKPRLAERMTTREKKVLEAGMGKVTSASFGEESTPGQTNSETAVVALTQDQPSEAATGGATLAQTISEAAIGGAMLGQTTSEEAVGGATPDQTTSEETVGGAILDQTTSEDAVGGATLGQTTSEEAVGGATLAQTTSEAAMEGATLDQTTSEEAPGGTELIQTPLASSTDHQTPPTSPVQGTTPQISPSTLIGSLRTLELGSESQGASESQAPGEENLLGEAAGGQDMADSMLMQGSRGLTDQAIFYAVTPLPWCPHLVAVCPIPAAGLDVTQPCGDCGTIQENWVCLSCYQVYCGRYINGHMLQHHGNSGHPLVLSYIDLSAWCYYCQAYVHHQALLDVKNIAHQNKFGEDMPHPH

[1] = test system: trypsin-induced itching (scratching behavior); assay: Trypsin-induced scratching behavior in mice (cheek injection, bouts counted for 30 minutes); type: in vivo, Male C57BL/6 mice; conditions: for number of scratching bouts compared with the only trypsin-injected mice: co-injected with 200 μg trypsin into skin of shaved right cheek, 30 minutes, 7.4 μg tubastatin A HCl or 61.4 ng M344, unpaired t-test
Procedure: Male C57BL/6 mice (6-week-old) were divided into groups of 3 to 5 animals, and isolated under a 12-hour light/dark cycle while being allowed to freely access water and food. Trypsin is diluted in phosphate buffered saline (PBS) to have the working concentration. […] All drug-containing stock solutions were stored in a freezer at −20 □, dissolved immediately prior to the behavioral experiment, and diluted with PBS to the final working concentration. For behavioral experiments, the right cheek of all mice was shaved, and the drug was injected after the acclimation period in an observation chamber for 2 days (2 hours/day) prior to the experiment date and 1 hour on the day of the experiment. The mice were subdued by being gently grabbed by a hand without anesthesia for drug treatment. All drugs were injected into the skin layer of the shaved right cheek at 20 μL using a 31-G insulin syringe. After returning to the observation chamber, all mice were videotaped for 30 minutes immediately after drug injection to evaluate itching behavior. For the behavioral experiment, the action of scratching the drug-injected site with a hind leg, and then placing the leg on the ground again or licking the site with a mouth was counted as 1 bout. All behavioral experiments were evaluated by testers in a blinded drug test. Statistical analysis for the experiments was performed using an unpaired t-test, and P<0.05 or P<0.01 was considered statistically significant (*: P<0.05; **: P<0.01). Data was expressed as mean±standard error (SEM).

In the case of O=C(NO)C1=CCCC1 [BRD9757], the Selectivity (HDAC6) is listed as “Very high” and the IC50 (HDAC6) is listed as 30 nM.

For O=C(NO)c1cnc(NC2(c3cccc(F)c3)CCCCC2)nc1 [ACY-775], the Selectivity (HDAC6) is listed as “Very high” and the IC50 (HDAC6) is listed as 7.5 nM.

For CN(C)c1ccc(C(=O)NCCCCCCC(=O)NO)cc1 [M344], the Selectivity (HDAC6) is listed as “High”, the IC50 (HDAC6) is listed as 88 nM and the “number of scratching bouts compared with the only trypsin-injected mice” value [1] is listed as “statistically significant smaller number of scratching bouts”.

With CN1CCc2c(c3ccccc3n2Cc2ccc(C(=O)NO)cc2)C1 [Tubastatin A, tubastatin A] the “number of scratching bouts compared with the only trypsin-injected mice” value [1] was “statistically significant smaller number of scratching bouts”.

For trypsin, the “scratching bouts for 30 minutes” value ([1]; 200 μg trypsin alone injected into cheek skin of normal mice, FIG. 1) was “approximately 100 bouts”.
